Source: paper PMC12833874 (Journal of Medicinal Chemistry, 2025)
Where two headings read alike, the source gives them in different places.

Key:
NOPr [1] = conditions: Table 4; literature values, reference number not given; read-out: literature K i; cited from earlier work
NOPr [2] = target: T1, NOPr (Homo sapiens, UniProt P41146); test: BRET G-protein activation (GPA) assay, Gαi2, agonist and antagonist mode, Flp-In-NOPr-CHO cells; assay type: cell-based
SNAP-NOPr = target: T2, SNAP-NOPr (Homo sapiens, UniProt P41146); test: Confocal imaging of fluorescent ligand binding, live FlpIn CHO cells stably expressing SNAP-NOPr; assay type: cell-based; conditions: 1 μM, 30 min at 37 °C, live cells
T2 construct: expressed in transfected cells
Method: To first assess whether the library of fluorescent ligands (13a-h and 14h) can specifically label the NOPr, single time point confocal images of live FlpIn CHO cells stably expressing SNAP-NOPr were captured. Cells were incubated with fluorescent ligands 13a-h and 14h (1 μM) to assess the fluorescent ligand binding.
3 Single time point confocal images of live FlpIn CHO cells stably expressing SNAP-NOPr. Cells were labeled with SNAP-AF488 (cyan) to visualize SNAP-NOPr expression (a–d) and incubated for 30 min at 37 °C with fluorescent ligands 13e–h (1 μM) (magenta) to visualize fluorescent ligand binding (e-h).
For all experiments, live cell single time point confocal images were captured using a Zeiss Cell Discoverer 7 LSM 900 high-content automated confocal microscope. Two images per well were captured using a 10× objective and the Cy5 channel (650 λex, 673 λem), the AF488 (495λex, 520 λem) channel, and the CFP (433λex, 475 λem) channel. All cells were imaged in an imaging buffer containing (2 mM sodium pyruvate, 145 mM NaCl, 10 mM D-glucose, 5 mM KCl, 1 mM MgSO4·7H2O, 10 mM HEPES, 1.3 mM CaCl2 dihydrate, and 1.5 mM NaHCO3).
Stably expressing SNAP-NOPr FlpIn-CHO cells suspended in DMEM (D6421) (100 μL) were seeded (10,000 cells/well) into 96-well poly-D-lysine (PDL)-coated Greiner black polyester plates. Cells were incubated for 48 h at 37 °C and 5% CO2 prior to imaging.
Before measurement, the media were removed, and cells were washed with 90 μL of imaging buffer. Cells were then incubated with SNAP-AF488 (New England Biolabs) (0.5 μg·mL^–1) in imaging buffer for 30 min at 37 °C. After incubation, the SNAP-AF488 solution was aspirated and cells were rinsed twice with imaging buffer (90 μL). […] Cells were incubated for 30 min at 37 °C and 5% CO2 before the images were captured.

NOPr [3] = target: T1, NOPr; test: TR-FRET equilibrium saturation binding, Lumi4Tb-SNAP-NOPr CHO membranes
NOPr [4] = target: T1, NOPr; test: TR-FRET kinetic binding, Lumi4-Tb-SNAP-NOPr-CHO membranes; conditions: for Kd: kinetically derived, 15 min, n = 3
NOPr [5] = target: T1, NOPr; test: TR-FRET competition binding with tracers 13g and 13h, Lumi4-Tb SNAP-NOPr membranes; conditions: 140 mM Na+, 100 μM Gpp(NH)p, 2 h 37 °C
NOPr [6] = target: T1, NOPr; test: TR-FRET competition binding with tracer 13h in presence and absence of Na+ and Gpp(NH)p
CHOhNOPr = conditions: ref Spagnolo et al.,1; cited from earlier work
CHOhMOPr = target: CHOhMOPr; parameters: method as in Spagnolo et al.,1; conditions: ref Spagnolo et al.,1; cited from earlier work
CHOhDOPr = target: CHOhDOPr; parameters: method as in Spagnolo et al.,1; conditions: ref Spagnolo et al.,1; cited from earlier work
CHOhKOPr = target: CHOhKOPr; parameters: method as in Spagnolo et al.,1; conditions: ref Spagnolo et al.,1; cited from earlier work
NOPr [7] = test system: NOPr; parameters: method as in Spagnolo et al.,1; conditions: ref Spagnolo et al.,1, cited from earlier work
MOPr = conditions: literature value, reference number not given; read-out: MOPr K i; cited from earlier work
KOPr = conditions: literature value, reference number not given; read-out: KOPr K i; cited from earlier work
DOPr = conditions: literature value, reference number not given; read-out: DOPr K i; cited from earlier work
[8] = IC50, antagonist mode, inhibition of EC80 concentration of N/OFQ, n = 4 in duplicate
[9] = pIC50 ± SEM, antagonist mode, inhibition of EC80 concentration of N/OFQ, n = 4 in duplicate

T1 sequence (P41146 whole entry): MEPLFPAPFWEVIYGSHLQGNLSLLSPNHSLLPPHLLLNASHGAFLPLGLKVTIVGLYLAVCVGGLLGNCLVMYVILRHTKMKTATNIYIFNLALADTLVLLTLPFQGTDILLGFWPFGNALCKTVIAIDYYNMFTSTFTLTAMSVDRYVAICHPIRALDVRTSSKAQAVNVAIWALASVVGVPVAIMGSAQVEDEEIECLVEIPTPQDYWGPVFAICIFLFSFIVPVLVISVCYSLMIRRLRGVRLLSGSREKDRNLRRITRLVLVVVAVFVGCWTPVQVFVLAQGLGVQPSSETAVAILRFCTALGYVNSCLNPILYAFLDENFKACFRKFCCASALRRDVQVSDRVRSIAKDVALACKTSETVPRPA
T2 sequence (P41146 whole entry): as above

Compound: N/OFQ: endogenous 17-amino acid neuropeptide agonist nociceptin/orphanin FQ, full NOPr agonist
- Ki (NOPr [1]): 0.08 ± 0.03 nM

Compound: CN1/C(=C/C=C/C=C/C2=[N+](CCCCCC(=O)NCCOc3cccc(CN4CCC[C@@H]4C(=O)NCCCN4CCC5(CC4)OCc4ccccc45)c3)c3ccc(S(=O)(=O)[O-])cc3C2(C)C)C(C)(C)c2cc(S(=O)(=O)[O-])ccc21.[K+] [13g, Potassium 1-(6-((2-(3-(((R)-2-((3-(3H-Spiro[isobenzofuran-1,4′-piperidin]-1′-yl)propyl)carbamoyl)pyrrolidin-1-yl)methyl)phenoxy)ethyl)amino)-6-oxohexyl)-3,3-dimethyl-2-((1E,3E)-5-((E)-1,3,3-trimethyl-5-sulfonatoindolin-2-ylidene)penta-1,3-dien-1-yl)-3H-indol-1-ium-5-sulfonate]
- reduction in inhibitory potency from N-Boc congener to fluorescent ligand (NOPr [2]; 11g to 13g, 11h to 13h and 14h): ≥ 5 fold
- IC50 (NOPr [2]; [8]): 110 nM
- IC50 (NOPr [2]; NOP IC50 (nM), supplementary csv, GPA assay antagonist mode): 109 nM
- IC50 (NOPr [2]; NOP pIC50 ± SEM, supplementary csv, GPA assay antagonist mode): 110 nM
- IC50 (NOPr [2]; [9]): 100 nM
- fluorescent ligand binding (confocal images) (SNAP-NOPr): more pronounced binding
- binding behaviour at the highest concentration tested (NOPr [3]; 400 nM): saturable binding with minimal nonspecific binding
- Kd (NOPr [3]; 2 h, 37 °C, n = 3, read-out: saturation KD (converted)): 19.1 nM
- Kd (NOPr [3]; 2 h, 37 °C, n = 3, read-out: saturation pKD (converted)): 19.1 nM
- selectivity over the other opioid receptors (NOPr [3]; NOPr vs MOPr, DOPr, KOPr): > 100 fold
- Kd (NOPr [3]; Table 3, equilibrium saturation binding, read-out: KD NOPr (converted)): 19.1 nM
- Kd (NOPr [3]; Table 3, equilibrium saturation binding, read-out: pKD ± SEM NOPr (converted)): 19.1 nM
- koff (NOPr [4]; 0–50 nM, over 15 min): 0.00167 s⁻¹
- kon (NOPr [4]; 0–50 nM, over 15 min): 51700 M⁻¹ s⁻¹
- Kd (NOPr [4]; read-out: kinetic KD (converted)): 35.7 nM
- Kd (NOPr [4]; read-out: kinetic pKD (converted)): 35.5 nM

Compound: CC(C)C1CCC(N2CCC3(CC2)C(=O)N(CCNS(N)(=O)=O)Cc2ccccc23)CC1 (centres unmarked) [AT-121]
- Ki (NOPr [5]; read-out: 13h K i ± SEM, tracer 13h (5 nM; 25 nM elsewhere in the source)): 11 ± 10 nM
- Ki (NOPr [5]; tracer 13g (20 nM; 5 nM elsewhere in the source), read-out: 13g K i ± SEM): 17 ± 3 nM

Compound: Cc1cccc2c1CC[C@H](CN1CCC(c3c(Cl)cccc3Cl)CC1)C[C@@H]2O [SB-612111, (−)-cis-1-Methyl-7-[[4-(2,6-dichlorophenyl)piperidin-1-yl]methyl]-6,7,8,9-tetrahydro-5 H-benzocyclohepten-5-ol]
- change in apparent affinity (K i), Na+ and Gpp(NH)p vs NMDG condition (NOPr [6]): ~1.3 fold
- Ki (CHOhNOPr): 0.16 nM
- pKi ± SEM CHOhNOPr (CHOhNOPr): 9.80 ± 0.08
- Ki (CHOhMOPr): < 1000 nM
- pKi CHOhMOPr (CHOhMOPr): < 6.0
- Ki (CHOhDOPr): < 5000 nM
- pKi CHOhDOPr (CHOhDOPr): < 5.3
- Ki (CHOhKOPr): < 1000 nM
- pKi CHOhKOPr (CHOhKOPr): < 6.0

Compound: O=C(NCCCN1CCC2(CC1)OCc1ccccc12)[C@H]1CCCN1Cc1ccccc1 [C24, (2R)-1-(phenylmethyl)-N-(3-spiro[1H-2-benzofuran-3,4′-piperidine]-1′-ylpropyl)pyrrolidine-2-carboxamide]
- IC50 (NOPr [2]; [8]): 2.7 nM
- IC50 (NOPr [2]; [9]): 2.51 nM
- Ki (NOPr [5]; 13g K i ± SEM (nM), tracer 13g (20 nM; 5 nM elsewhere in the source)): 0.06 ± 0.02 nM
- Ki (NOPr [5]; 13h K i ± SEM (nM), tracer 13h (5 nM; 25 nM elsewhere in the source)): 0.09 ± 0.0008 nM
- Ki (NOPr [1]): 0.24 nM
- Ki (MOPr): > 2500 nM
- Ki (KOPr): > 2500 nM
- Ki (DOPr): > 2500 nM
